Data: EPA's ToxValDB 9.5 (doi:10.2903/j.efsa.2011.2159)
Values after ≈ are worked out from the molar mass of the structure shown.

Assays:
Anas platyrhynchos = details: mortality
Canidae = details: chronic; duration: 1 years; oral; Dog Other; clinical signs
Bibionidae = details: chronic/long-term; duration: 28 days
Apis mellifera = details: acute; duration: 48 hours; oral; unspecified; mortality
Mus musculus = details: acute; oral; mortality
Daphnia magna = details: chronic/long-term; duration: 21 days; reproduction
Colinus virginianus = details: mortality; for LD50: acute, oral
Aphidius rhopalosiphi = details: not reported; mortality

`Cc1c(COC(=O)[C@@H]2[C@H](/C=C(\Cl)C(F)(F)F)C2(C)C)cccc1-c1ccccc1` [Bifenthrin] gave an LD50 (Anas platyrhynchos; acute, oral, unspecified) greater than 2150 mg/kg, an NOEC (Anas platyrhynchos; reproductive) of 75 mg/kg and an NOEC (Anas platyrhynchos; short-term, oral, feed) of 312 mg/kg. For the same compound, the NOAEL (Rattus norvegicus; developmental, development) was greater than 2 mg/kg-day, the NOAEL (Rattus norvegicus; reproduction developmental, reproduction) was 3 mg/kg-day and the NOAEL (Rattus norvegicus; subchronic, duration: 90 days, oral, neurology) was 2.9 mg/kg-day. For the same compound, the NOAEL (Canidae) was 1.5 mg/kg-day, the NOEC (Bibionidae) was 0.00032 mg/L and the LD50 (Apis mellifera) was 0.1 µg/piece. The LD50 (Mus musculus) was 42.5 mg/kg, the NOEC (Daphnia magna) was 9.5e-07 mg/L and the LD50 (Colinus virginianus; diet) was 569 mg/kg-day. It also gave an LD50 (Colinus virginianus) of 1800 mg/kg, an NOEC (Colinus virginianus; reproduction developmental) of 75 mg/kg-day and an LEL (Aphidius rhopalosiphi) of 60 g/ha. It also gave an LC50 (Tagia sp.; acute, duration: 14 days, mortality) greater than 16 mg/kg, an NOEC (Tagia sp.; chronic/long-term, duration: 56 days, reproduction) of 2.16 mg/kg and an LC50 (Oncorhynchus mykiss; acute, duration: 96 hours, mortality) of 0.1 ng/mL (≈ 0.236 nM). The NOEC (Oncorhynchus mykiss; chronic/long-term, duration: 30 days, other) was 1.2e-05 mg/L.
